Experimental data reported in patent publication US10016373B2, “CB2 receptor ligands for the treatment of psychiatric disorders” (priority 2013, dated 2018).
Where two headings read alike, the source gives them in different places.

Legend:
Body weight = format: in vivo; settings: postnatal day 100; mice treated with 0.5 mg/kg CB2 agonist2; FIG. 16C
mice [1] = format: in vivo
Experimental: For the treated mice, one of the two CB2 receptor-selective agonist solutions: either CB2 agonist2 solution or H-308 solution, was administered by intravenous administration to mice pups to induce ADHD-like behavior and/or obsessive-compulsive-like behavior as a murine model for ADHD and OCD. […] In order to test the effect of non-agonist or mixed-type agonist/inverse agonist CB2 receptor ligands on hyperactivity, the effects of M1 were studied.
Open-Field Test (Crossing and Rearing, Defecation, Grooming)
Mice were assessed for hyperactive behavior on postnatal days 16-20, 26-39, at age 13 weeks and at age 23 weeks. Mice were placed in the center of a transparent glass cage 30×40×31 cm divided into squares of 7.5×7.5 cm. The number of squares crossed and the rearing activity were evaluated for 8 min.

mice [2] = test: Prepulse inhibition (PPI) of the startle reflex; format: in vivo
Experimental: Attention Test: Prepulse Inhibition (PPI) of the Startle Reflex
A weak audible stimulus (74-90 dB tone) “prepulse” was used to inhibit the acoustic startle response to a subsequent strong audible stimulus (120 dB tone) “pulse”. Reduced prepulse inhibition of the startle reflex (PPI) was taken as an index of the positive symptoms of deficits in attention.
PPI was assessed similarly to the method described by Varty et al. (2001). Mice were placed in a startle chamber and allowed to acclimatize for 5 minutes A loudspeaker produced startling “pulse” at 120 dB and thereafter 65 dB background white noise or one of […] 20 ms duration “prepulses” at 74, 78, 82, 86, and 90 dB followed after 20 ms by a 40 ms startling “pulse” at 120 dB. The response of each mouse was recorded and stored by a computer. Each test session lasted for 11 minutes and consisted of 5 presentations of each of the prepulse/pulse sound stimuli (total of 30 or 35) presented in random order and separated by 15 second intervals. The magnitude of prepulse inhibition was calculated as percentage PPI=[1-(acoustic startle for prepulse+pulse)/(acoustic startle for pulse alone)]×100.

mice [3] = test: Impulsivity, Elevated Plus Maze; format: in vivo; settings: CB2 agonist2 model mice at 13 weeks, M1 5 mg/kg i.p. 24 hours before the test
Experimental: The treatment consisted of a single intravenous administration of the vehicle or the M1 solution Impulsivity was tested 24 hours after treatment.
Impulsivity as measured by the paucity of time spent on the two anxiety-provoking, open arms (as opposed to the two enclosed arms) of an “Elevated Plus Maze” was used as a parameter of negative symptoms of schizophrenia (Josselyn and Vaccarino, 1998). The plus maze was elevated 50 cm above the table top. Behavior of each mouse was recorded for 5 minutes by a video camera and scored using the “EthoVision” software (Noldus), measuring the number of entries as well as the amount of time spent in each arm, open or closed. Reduced time spent in the closed arms indicated reduced anxiety. Increased time spent in the opened arms indicated increased risk behavior (hyperactive and impulsive).
The treatment consisted of a single i.p. administration of the vehicle or the M1 solution. The duration ratio open arm/close arm and the frequency ratio open arm/close arm in the Elevated Plus Maze were evaluated 24 hours after treatment with either vehicle or M1.

CB2 receptor [4] = target: T1, CB2 receptor (Homo sapiens, UniProt P34972); settings: cited from earlier work
T1 construct: expressed in transfected cells; host or cells: CHO cells

[5] = tested on: mouse model of Alzheimer's disease; settings: orally administered, Lee et al. 2012; cited from earlier work
mice [6] = test: Vocal tics, ultrasonic voice recording; format: in vivo
Experimental: Mice were recorded at the age of 13 or 23-25 weeks with an ultrasonic voice recorder (Noldus). Mice were recorded at the age of 29 days with an ultrasonic voice recorder (AviSoft). Single mice were recorded in a cage for 10 min (according to sex and type of treatment). The number and duration of events at 20-40 kHz and at 50-70 kHz were analyzed. In some experiments, 24 h following M1 treatment, each mouse was recorded for 10 min before and after stress. Stress was induced by incubation for 10-15 min in a mouse restrainer.

osteoclastogenesis = settings: Schuehly et al. 2011; cited from earlier work
presenilin 2 mutant mice = settings: cited from earlier work
CB2 receptor [7] = target: T1, CB2 receptor; settings: cited from earlier work; remark: listed apart in the source
[8] = CB2 receptor, Schuehly et al. 2011

T1 sequence (P34972 whole entry): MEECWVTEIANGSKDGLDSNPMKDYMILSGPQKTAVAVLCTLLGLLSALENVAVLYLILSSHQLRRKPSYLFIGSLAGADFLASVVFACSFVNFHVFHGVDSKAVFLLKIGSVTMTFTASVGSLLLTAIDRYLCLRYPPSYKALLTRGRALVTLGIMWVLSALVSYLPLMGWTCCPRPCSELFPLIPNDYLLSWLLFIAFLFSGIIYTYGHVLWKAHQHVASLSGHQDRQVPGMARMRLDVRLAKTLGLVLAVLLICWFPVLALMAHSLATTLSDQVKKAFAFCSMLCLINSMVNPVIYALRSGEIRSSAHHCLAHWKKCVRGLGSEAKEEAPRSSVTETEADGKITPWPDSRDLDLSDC

## C=CCc1ccc(O)c(-c2ccc(OC)c(CC=C)c2)c1 [M1, 2-(4-Methoxy-3-prop-2-enylphenyl)-4-prop-2-enylphenol]
Body weight
  body weight: no effect
Mice [1]; CB2 agonist2 0.5 mg/kg at the age of 3-15 days, M1 5 mg/kg on day 29, measured on day 39, stressed female mice, FIG. 13A
  grooming: reversed
Mice [1]; CB2 agonist2 0.5 mg/kg at the age of 3-15 days, M1 5 mg/kg on day 29, measured on day 39, stressed female mice, FIG. 13B
  feces secretion: reversed
Mice [1]; CB2 agonist2 0.5 mg/kg at the age of 3-15 days, M1 on day 29, measured on day 36, unstressed female mice, FIG. 12A
  rearing: reversed
Mice [1]; CB2 agonist2 0.5 mg/kg at the age of 3-15 days, M1 on day 29, measured on day 39, stressed female mice, FIG. 12B
  ambulation: reversed
Mice [1]; CB2 agonist2 0.5 mg/kg model, M1 injected on day 29, measured the same day, stressed females, FIG. 11B
  ambulation: reversed
Mice [1]; CB2 agonist2 0.5 mg/kg model, M1 injected on day 29, measured the same day, stressed females, FIG. 11D
  rearing: reversed
Mice [1]; age of 3 months, 0.1 mg/kg HU-308, M1 5 mg/kg in gavage 30 minutes before the experiment, FIGS. 17A-B
  hyperactivity: reversed
Mice [1]; inferred from efficacy of M1 5 mg/kg given in gavage
  oral availability: orally available
Mice [1]; model mice 5 mg/kg CB2 agonist2 postnatal days 1-5, M1 5 mg/kg single i.p. at 13 weeks, 30 minutes after treatment, FIG. 5A
  ambulation: reversed
Mice [1]; model mice 5 mg/kg CB2 agonist2 postnatal days 1-5, M1 5 mg/kg single i.p. at 13 weeks, 30 minutes after treatment, FIG. 5B
  rearing: reversed
Mice [1]; model mice 5 mg/kg CB2 agonist2 postnatal days 5-13, M1 5 mg/kg single i.p. at 23 weeks, FIG. 4C
  secretion of feces: reversed
Mice [1]; model mice 5 mg/kg CB2 agonist2 postnatal days 5-13, M1 5 mg/kg single i.p. at 23 weeks, tested 48 hours after treatment, FIG. 4A
  grooming duration: reversed
Mice [1]; model mice 5 mg/kg CB2 agonist2 postnatal days 5-13, M1 5 mg/kg single i.p. at 23 weeks, tested 48 hours after treatment, FIG. 4B
  grooming frequency: reversed
Mice [2]; mice treated with 0.5 mg/kg CB2 agonist2, FIG. 15B
  response to pre-pulse tone: reversed
Mice [2]; postnatal day 100, 0.5 mg/kg CB2 agonist2 mice, at the beginning of the experiment, FIG. 16A
  response to the startle tone of 120 dB: no effect
Mice [2]; postnatal day 100, 0.5 mg/kg CB2 agonist2 mice, re-evaluated at the end of the experiment, FIG. 16B
  response to 120 dB: reversed
Mice [2]; postnatal day 100, mice treated with 0.5 mg/kg CB2 agonist2, FIG. 15A
  % PPI (pre-pulse inhibition): reversed
Mice [3]
  impulsive/hyperactive behavior: reversed
CB2 receptor [4]; [8]
  activity via Ca2+ pathway: partial agonism
CB2 receptor [4]; known dual effects of M1
  intracellular Ca2+ concentration: increasing
[5]
  amyloidogenesis and progression of AD: prevent
Mice [6]; 20-40 KHz, day 29, female mice, CB2 agonist2 0.5 mg/kg at the age of 3-15 days, M1 5 mg/kg on day 29, FIG. 14A
  number of vocal events: reversed
Mice [6]; 20-40 KHz, day 29, female mice, CB2 agonist2 0.5 mg/kg at the age of 3-15 days, M1 5 mg/kg on day 29, FIG. 14B
  duration of vocals: reversed
Mice [6]; female mice 23-25 weeks, 20-40 KHz, stress, CB2 agonist2 5 mg/kg postnatal days 5-13, M1 given to model mice, FIG. 7A
  number of vocal events: reversed
Mice [6]; female mice 23-25 weeks, 20-40 KHz, stress, CB2 agonist2 5 mg/kg postnatal days 5-13, M1 given to model mice, FIG. 7B
  total duration of vocal events: reversed
Mice [6]; female mice 23-25 weeks, 20-40 KHz, stress, CB2 agonist2 5 mg/kg postnatal days 5-13, M1 given to model mice, FIG. 7C
  mean duration of vocal events: reversed
Mice [6]; female mice 23-25 weeks, 50-70 KHz, stress, CB2 agonist2 5 mg/kg postnatal days 5-13, M1 given to model mice, FIG. 8A
  number of vocal events: reversed
Mice [6]; female mice 23-25 weeks, 50-70 KHz, stress, CB2 agonist2 5 mg/kg postnatal days 5-13, M1 given to model mice, FIG. 8B
  total duration of vocal events: reversed
Mice [6]; female mice 23-25 weeks, 50-70 KHz, stress, CB2 agonist2 5 mg/kg postnatal days 5-13, M1 given to model mice, FIG. 8C
  mean duration of vocal events: reversed
Mice [6]; male mice 23-25 weeks, 20-40 KHz, before stress, CB2 agonist2 5 mg/kg postnatal days 5-13, M1 given to model mice, FIG. 9A
  total duration of vocal events: reversed
Mice [6]; male mice 23-25 weeks, 20-40 KHz, before stress, CB2 agonist2 5 mg/kg postnatal days 5-13, M1 given to model mice, FIG. 9B
  mean duration of vocal events: reversed
Mice [6]; male mice 23-25 weeks, 50-70 KHz, before stress, CB2 agonist2 5 mg/kg postnatal days 5-13, M1 given to model mice, FIG. 10A
  total duration of vocal events: reversed
Mice [6]; male mice 23-25 weeks, 50-70 KHz, before stress, CB2 agonist2 5 mg/kg postnatal days 5-13, M1 given to model mice, FIG. 10B
  mean duration of vocal events: reversed
osteoclastogenesis
  osteoclastogenesis: potently inhibits
Presenilin 2 mutant mice
  memory impairment: attenuates
CB2 receptor [7]; [8]
  activity via cAMP pathway: inverse agonism
CB2 receptor [7]; known dual effects of M1
  cAMP production: increasing
